Experiments:
system Xc^− [1] = target: T1, system Xc^− (Homo sapiens, UniProt Q9UPY5); test: Cystine-induced glutamate release assay; assay type: cell-based; design: endogenous in cells; host or cells: H4 cells; conditions: H4 cells, sodium-free HEPES buffer, 50 μM L-Cystine, 2 hours, Amplex Red glutamate readout; read-out: pIC50 Cystine-induced glutamate release assay (converted)
T1 sequence (Q9UPY5 1-501): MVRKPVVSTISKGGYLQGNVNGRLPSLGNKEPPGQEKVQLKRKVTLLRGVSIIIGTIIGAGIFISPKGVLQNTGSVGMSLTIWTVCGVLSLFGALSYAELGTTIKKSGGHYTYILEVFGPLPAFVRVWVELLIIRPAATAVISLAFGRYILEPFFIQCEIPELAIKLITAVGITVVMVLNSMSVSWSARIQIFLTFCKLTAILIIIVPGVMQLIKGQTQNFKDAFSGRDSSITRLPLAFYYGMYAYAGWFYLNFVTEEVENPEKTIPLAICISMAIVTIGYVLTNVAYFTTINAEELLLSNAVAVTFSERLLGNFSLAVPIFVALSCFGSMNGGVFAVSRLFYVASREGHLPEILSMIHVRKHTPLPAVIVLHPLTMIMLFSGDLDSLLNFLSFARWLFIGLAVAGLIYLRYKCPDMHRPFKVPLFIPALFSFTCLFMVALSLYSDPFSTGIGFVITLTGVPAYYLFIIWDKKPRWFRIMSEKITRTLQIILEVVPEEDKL
T1 sequence (P08195 1-529 partner): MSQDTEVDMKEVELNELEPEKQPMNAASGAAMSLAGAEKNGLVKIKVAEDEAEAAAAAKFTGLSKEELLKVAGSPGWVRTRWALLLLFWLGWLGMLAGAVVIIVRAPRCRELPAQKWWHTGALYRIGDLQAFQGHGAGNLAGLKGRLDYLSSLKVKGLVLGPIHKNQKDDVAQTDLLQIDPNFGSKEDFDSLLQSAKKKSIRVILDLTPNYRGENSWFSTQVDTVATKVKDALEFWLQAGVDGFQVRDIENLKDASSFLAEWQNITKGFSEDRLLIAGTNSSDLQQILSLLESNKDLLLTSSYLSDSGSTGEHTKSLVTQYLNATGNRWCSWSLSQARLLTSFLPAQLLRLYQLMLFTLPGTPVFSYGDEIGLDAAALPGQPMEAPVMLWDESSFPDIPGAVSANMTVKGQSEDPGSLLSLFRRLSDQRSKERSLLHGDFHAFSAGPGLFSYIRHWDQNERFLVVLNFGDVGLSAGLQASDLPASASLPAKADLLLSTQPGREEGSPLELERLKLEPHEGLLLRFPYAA
Description: (§1) The effect of compounds of Formula (I) on the system Xc^− functionality was examined in two independent cell assays: (i) measurement of cystine-induced glutamate release; and (ii) measurement of [^14C]L-Cystine uptake.
(§2) As described above, System Xc^−, also known as the cystine/glutamate antiporter, is an amino acid transporter that mediates the extrusion of intracellular L-glutamate outside the cell and the uptake of extracellular L-cystine into the cell.
(§3) By measuring respectively, the concentration of glutamate released outside the cell and the L-cystine uptaken in the cell, with increasing concentrations of compounds of formula (I) according to the present invention, the efficacy of said compounds to inhibit the System Xc^− function can be evaluated.
(§4) The efficacy of the compounds to inhibit system Xc^− is represented by measuring the IC50 which corresponds to the concentration of compound necessary to inhibit 50% of the signals from the two control groups; DMSO 1% and Erastin 50 μM in the respective assays. pIC50 values correspond to −log of the IC50 in Molar.
Measurement of cystine-induced glutamate release indicates levels of glutamate (outside of the cell) that are dependent on system Xc^− antiporter function. Upon the addition of L-Cystine to H4 cells, intracellular glutamate is counter-transported and exported in the supernatant.
In this assay, the medium is devoid of sodium to prevent the transport of glutamate by sodium-dependent excitatory amino acid transporters (EAATs). H4 cells were plated on 384-well culture plate at 1×10^4 cells/well in Dulbecco's Modified Eagle Medium (DMEM) with L-glutamine, penicillin/streptomycin and 10% fetal bovine serum (all from ThermoFisher Scientific) and incubated in a humidified CO2 incubator at 37° C. After 2 days, cells were washed 4 times with prewarmed sodium-free HEPES buffer (contents in mM: HEPES 10, KCl 5.4, CaCl2 2.5, MgCl2 1, KH2PO4 0.4, D-Glucose 5, Choline chloride 140), pH 7.4. Glutamate release was induced by addition of 50 μM of L-Cystine (Sigma-Aldrich), together with a test compound of Formula (I) at 1% final DMSO concentration. After 2 hours of incubation in the culture incubator, supernatants were transferred to a low-binding polypropylene 384-well plate to determine L-glutamate concentration using Amplex™ Red Glutamic Acid Assay Kit (ThermoFisher Scientific). Briefly, 10 μL of Amplex™ Red working solution was added to 10 μL of the supernatant, then the mixture was incubated for 30 min at 37° C. Fluorescence intensity was measured by EnVision microplate reader (PerkinElmer).

system Xc^− [2] = target: T1, system Xc^−; test: [^14C]L-Cystine uptake assay; assay type: cell-based; design: endogenous in cells; host or cells: H4 cells; conditions: H4 cells, sodium-free HEPES buffer, 0.5 μM L-[14C]Cystine and 4.5 μM L-Cystine, 1 hour at 37° C.; read-out: pIC50 [^14C] L-Cystine uptake assay (converted)
Description: as §1, §2, §3, §4
In this assay, the medium is devoid of sodium to prevent the transport of glutamate by sodium-dependent excitatory amino acid transporters (EAATs). H4 cells were plated on a 96-well CytoStar-T scintillating microplate (PerkinElmer) at 5×10^4 cells/well in the medium described above. After 1 day, cells were washed one time with the sodium-free HEPES buffer and preincubated with test compounds of Formula (I) (1% final DMSO) for 15 min. Uptake was initiated by adding 0.5 μM L-[1,2, 1′,2′-^14C]Cystine (0.02 mCi/mL, PerkinElmer, Waltham, US) and 4.5 μM L-Cystine (Sigma-Aldrich). After 1 hour at 37° C., plates were counted in a MicroBeta^2 microplate counter (PerkinElmer).

Structure (SMILES) | IC50 (system Xc^− [1]) | IC50 (system Xc^− [2])
Cc1cc2c(cn1)-c1cccnc1C(C)C(=O)N2CC(=O)Nc1ccc(C(F)(F)F)cc1 (centres unmarked) [#91, 2-(5,10-dimethyl-9-oxo-4,8,12-triazatricyclo[9.4.0.0^2,7]pentadeca-1(11),2(7),3,5,12,14-hexaen-8-yl)-N-[4-(trifluoromethyl)phenyl]acetamide] | 39.8 to 100 nM | 15.8 to 39.8 nM
Cc1cc2c(c(O)n1)-c1cccnc1CC(=O)N2CC(=O)Nc1ccc(C(F)(F)F)cc1 [#76, 2-(3-hydroxy-5-methyl-9-oxo-4,8,12-triazatricyclo[9.4.0.0^2,7]pentadeca-1(11),2(7),3,5,12,14-hexaen-8-yl)-N-[4-(trifluoromethyl)phenyl]acetamide] | 100 to 501 nM | 100 to 501 nM
Cc1cc2c(c(F)n1)-c1cccc(=O)n1CC(=O)N2CC(=O)Nc1ccc(C(F)(F)F)cc1 [#102, 2-(3-fluoro-5-methyl-9,12-dioxo-4,8,11-triazatricyclo[9.4.0.0^2,7]pentadeca-1(15),2(7),3,5,13-pentaen-8-yl)-N-[4-(trifluoromethyl)phenyl]acetamide] | 100 to 501 nM | 39.8 to 100 nM
Cc1cc2c(c(F)n1)-c1cccnc1[C@@H](C)C(=O)N2CC(=O)Nc1ccc(Br)cc1 [#145, N-(4-bromophenyl)-2-[(10R)-3-fluoro-5,10-dimethyl-9-oxo-4,8,12-triazatricyclo[9.4.0.0^2,7]pentadeca-1(11),2(7),3,5,12,14-hexaen-8-yl]acetamide] | < 15.8 nM | < 15.8 nM
Cc1cc2c(c(F)n1)-c1cncnc1C(C)C(=O)N2CC(=O)Nc1ccc(C(F)(F)F)cc1 (centres unmarked) [#112, 2-(15-fluoro-8,13-dimethyl-9-oxo-4,6,10,14-tetrazatricyclo[9.4.0.0^2,7]pentadeca-1(15),2(7),3,5,11,13-hexaen-10-yl)-N-[4-(trifluoromethyl)phenyl]acetamide] | 39.8 to 100 nM | < 15.8 nM
Cc1cc2c(c(C#N)n1)-c1cccnc1CC(=O)N2CC(=O)Nc1ccc(C(F)(F)F)cc1 [#153, 2-(3-cyano-5-methyl-9-oxo-4,8,12-triazatricyclo[9.4.0.0^2,7]pentadeca-1(11),2(7),3,5,12,14-hexaen-8-yl)-N-[4-(trifluoromethyl)phenyl]acetamide] | 15.8 to 39.8 nM | 15.8 to 39.8 nM
Cc1cc2c(c(F)n1)-c1cccnc1[C@@H](C)C(=O)N2CC(=O)Nc1ccc(Cl)cc1F [#242, N-(4-chloro-2-fluoro-phenyl)-2-[(10R)-3-fluoro-5,10-dimethyl-9-oxo-4,8,12-triazatricyclo[9.4.0.0^2,7]pentadeca-1(15),2,4,6,11,13-hexaen-8-yl]acetamide] | 15.8 to 39.8 nM | 39.8 to 100 nM
Cc1cc2c(c(C)n1)-c1ccc(C)nc1CC(=O)N2CC(=O)Nc1ccc(C(F)(F)F)cc1 [#70, N-[4-(trifluoromethyl)phenyl]-2-(3,5,13-trimethyl-9-oxo-4,8,12-triazatricyclo[9.4.0.0^2,7]pentadeca-1(11),2(7),3,5,12,14-hexaen-8-yl)acetamide] | 39.8 to 100 nM | 

More lines, now with the values ahead:

IC50 (system Xc^− [1]) | IC50 (system Xc^− [2]) | Structure (SMILES)
15.8 to 39.8 nM | < 15.8 nM | CC1C(=O)N(CC(=O)Nc2ccc(Cl)c(F)c2)c2ccn(C)c(=O)c2-c2ccc(F)cc21 (single isomer, unassigned) [#364, N-(4-chloro-3-fluoro-phenyl)-2-[-9-fluoro-2,7-dimethyl-1,6-dioxo-7H-pyrido[4,3-d][3]benzazepin-5-yl]acetamide]
< 15.8 nM | < 15.8 nM | COc1cc2c(c(C)n1)-c1cccnc1C(C)C(=O)N2CC(=O)Nc1ccc(Cl)c(F)c1 (single isomer, unassigned) [#300, N-(4-chloro-3-fluoro-phenyl)-2-[5-methoxy-3,10-dimethyl-9-oxo-4,8,12-triazatricyclo[9.4.0.0^2,7]pentadeca-1(15),2(7),3,5,11,13-hexaen-8-yl]acetamide]
< 15.8 nM |  | O=C(CN1C(=O)C(O)c2ncc(F)cc2-c2c(F)cc(F)cc21)Nc1ccc(C(F)F)cc1 (single isomer, unassigned) [#318, N-[4-(difluoromethyl)phenyl]-2-[2,9,11-trifluoro-5-hydroxy-6-oxo-5H-pyrido[2,3-d][1]benzazepin-7-yl]acetamide]
< 15.8 nM |  | CC1C(=O)N(CC(=O)Nc2ccc(C(F)F)cc2)c2cc(N3CC(F)(F)C3)nc(Cl)c2-c2cccnc21 (centres unmarked) [#292, 2-[3-chloro-5-(3,3-difluoroazetidin-1-yl)-10-methyl-9-oxo-4,8,12-triazatricyclo[9.4.0.0^2,7]pentadeca-1(15),2,4,6,11,13-hexaen-8-yl]-N-[4-(difluoromethyl)phenyl]acetamide]
15.8 to 39.8 nM |  | Cc1cc2c(c(F)n1)-c1cccnc1[C@@H](C)C(=O)N2CC(=O)Nc1cc(F)c(Cl)cc1F [#245, N-(4-chloro-2,5-difluoro-phenyl)-2-[(10R)-3-fluoro-5,10-dimethyl-9-oxo-4,8,12-triazatricyclo[9.4.0.0^2,7]pentadeca-1(15),2,4,6,11,13-hexaen-8-yl]acetamide]
39.8 to 100 nM |  | O=C(CN1C(=O)Cc2cc(Cl)ccc2-c2c1cc(C1CC1)nc2Cl)Nc1ccc(C(F)F)cc1 [#340, 2-(1,9-dichloro-3-cyclopropyl-6-oxo-7H-pyrido[4,3-d][3]benzazepin-5-yl)-N-[4-(difluoromethyl)phenyl]acetamide]
< 15.8 nM |  | CC1C(=O)N(CC(=O)Nc2ccc(C(F)F)cc2)c2cc(C(F)F)nc(Cl)c2-c2cccnc21 (centres unmarked) [#338, 2-[3-chloro-5-(difluoromethyl)-10-methyl-9-oxo-4,8,12-triazatricyclo[9.4.0.0^2,7]pentadeca-1(11),2(7),3,5,12,14-hexaen-8-yl]-N-[4-(difluoromethyl)phenyl]acetamide]
15.8 to 39.8 nM |  | CC1C(=O)N(CC(=O)Nc2ccc(Cl)c(F)c2)c2cc(C3(F)CN(C)C3)nc(Cl)c2-c2cccnc21 (centres unmarked) [#422, 2-[3-chloro-5-(3-fluoro-1-methyl-azetidin-3-yl)-10-methyl-9-oxo-4,8,12-triazatricyclo[9.4.0.0^2,7]pentadeca-1(11),2,4,6,12,14-hexaen-8-yl]-N-(4-chloro-3-fluoro-phenyl)acetamide]
39.8 to 100 nM |  | COc1ccc2c(c1)N(CC(=O)Nc1ccc(C(F)F)cc1)C(=O)C(C)c1ncccc1-2 (centres unmarked) [#305, N-[4-(difluoromethyl)phenyl]-2-(9-methoxy-5-methyl-6-oxo-5H-pyrido[2,3-d][1]benzazepin-7-yl)acetamide]

Reference: patent US20260217708A1, “FUSED BENZAZEPINE DERIVATIVES FOR USE IN THE TREATMENT OF CANCER AND EPILEPSY” (UCB BIOPHARMA SRL, priority 2023, published 2026)
